Results published in article PMC11272598, “RG7774 (Vicasinabin), an orally bioavailable cannabinoid receptor 2 (CB2R) agonist, decreases retinal vascular permeability, leukocyte adhesion, and ocular inflammation in animal models” (Frontiers in Pharmacology, 2024).

Tests used:
[1] = tested on: LPS-induced leukocyte adhesion; assay: LPS-induced leukocyte adhesion in rats with EIU (IVM); assay type: in vivo, Lewis rats; details: IV 1.0 mg/kg, 6 h after LPS
Experimental: Male BALB/c mice aged 8–10 weeks and weighing 21–26 g (Charles River, QC, Canada) were housed in individually ventilated Allentown cages (Allentown Inc., NJ, United States). Maximum density was n = 5 per cage, with the same litter and sex. Male Lewis rats aged 7–10 weeks and weighing 200–300 g (Charles River, QC, Canada) were housed in static cages (Allentown Inc., NJ, United States), n = 2 per cage with the same litter and sex. Both mice and rats were maintained in a controlled environment (21°C–22°C, humidity range 40%–60%, and a 12 h light/dark cycle), with unrestricted access to food and water. All experiments were conducted in accordance with the standards and procedures of the Canadian Council on Animal Care ([CCAC, 2024]) and were approved by the Dalhousie University Committee on Laboratory Animals. The protocol #13-027 was approved for experimental work in mice. […] All experiments were performed and are reported in accordance with the ARRIVE guidelines ([Kilkenny et al., 2010]; [McGrath et al., 2010]). […]
IVM was used for in vivo investigations of LPS-induced leukocyte recruitment as previously described ([Toguri et al., 2014]). […] The depth of anesthesia throughout the procedure was assessed by the absence of a toe-pinch reflex. […]

[2] = tested on: STZ-induced diabetes retinal vascular permeability; assay: Rats with STZ-induced type 1 diabetes (fluorophotometry); assay type: in vivo, Long Evans rats; details: STZ diabetic rats, 10 mg/kg daily oral gavage, 6 weeks after STZ, normalized to plasma
Experimental: Twenty-six male Long Evans rats (outbred) (Charles River Laboratories, Sulzfeld, Germany) aged 7 weeks and weighing 250–270 g at the beginning of the study were housed in individually ventilated cages with a maximum density of n = 2 rats per cage with the same sex and monitored daily. Bedding for diabetic animals was changed daily. The room was kept at 20°C–24°C with 50%–60% humidity and a 12/12 h light-dark cycle. Rats received a standard diet and water ad libidum, in addition to soaked food or soft diet. For animal welfare and for dosing purposes, animals were weighed every other day. Rats were sacrificed if weight loss was greater than 20% of the original weight, or more than 20% of body gain within 1 week.
Animals were fasted overnight and injected the following morning with IP 60 mg/kg (60 mg/mL at 1 mL/kg) STZ as reported previously ([Kim et al., 2007]; [Furman, 2015]) in 0.05 M sodium citrate buffer (pH 4.5). […]
To quantify fluorotron measurements, raw data were generated, exported as .txt files, and plotted using Microsoft Excel. The average AUC was calculated for 5 steps in the region of the scans corresponding to the vitreous peak. […] All data are expressed as mean ± SEM ng/mL ratios of vitreous:plasma fluorescein. Fluorophotometry data were analyzed using 2-way ANOVA followed by Newman–Keuls multiple comparisons test. […]

Compound: Cn1nnnc1Cn1nnc2c(N3CC[C@H](O)C3)nc(C(C)(C)C)nc21 [RG7774, (S)-1-(5-tert-butyl-3-[(1-methyl-1H-tetrazol-5-yl)methyl]-3H-[1,2,3]triazolo[4,5-d]pyrimidin-7-yl)pyrrolidin-3-ol]
- decrease in leukocyte adhesion compared to vehicle control [1]: 60%
- vitreous fluorescein [2]: 25.6 ng/mL
